According to patent US20120315648A1, “METHOD OF IDENTIFICATION OF CELLS THAT SHOW SENSITIVITY TO MODULATION OF SIGNALING MEDIATED BY A FIBROBLAST GROWTH FACTOR RECEPTOR OR A VARIANT THEREOF” (priority 2007, published 2012):
Entries after “also recorded” stand apart in the source; their conditions may differ.

How the values were obtained:
[1] = system: RT112 bladder cancer cell line; experiment: Cell proliferation assay (methylene blue, 96-well), RT112; assay type: cell-based; conditions: Homo sapiens, RT-112; RT112 bladder cancer cells, 72 h, average of several independent assays; read-out: IC50 (nM) ± SD, proliferation inhibition
Protocol: (§1) The bladder carcinoma cell lines are grown in MEM EBS (Minimum Essential Medium with Earls Basal Salts) (Amimed, Allschwil, Switzerland, #1-31F0-I) supplemented with 1% L-glutamine (Amimed #5-10K00-H), 1% MEM NEAA (MEM Non-essential Amino Acid Solution) (Amimed #5-13K00-H), 1% Na- pyruvate (Amimed #5-60F00-H) and 10% FCS (Gibco, Invitrogen AG, Basel, Schweiz, #10082-147).
(§2) In detail, FGF-R1, FGF-R2 and FGF-R4 expression is determined by Western Blot using specific antibodies, respectively: sc-121 (Santa Cruz), sc-122 (Santa Cruz) and sc-124 (Santa Cruz). […] Cell proliferation is measured in 96-well plates. […] Upon addition of 200 μl/well HCl (3%) and incubation for 30 min at RT on a plate shaker, the Optical Density (OD) at 650 nm is measured. The concentration of inhibitor 1 providing 50% of proliferation inhibition is calculated using Excel module.
(§3) The FGF-R dependency as well as sensitivity to inhibitor 1 and/or to inhibitor 2 for each of the indicated cell lines is characterized as indicated above. The effect of inhibitor 1 and inhibitor 2 on cell viability is assessed by means of proliferation assays; the IC50s shown are the average IC50s of several independent assays (their number given by N).

[2] = system: RT4 bladder cancer cell line; experiment: Cell proliferation assay (methylene blue, 96-well), RT4; assay type: cell-based; conditions: Homo sapiens; RT4 bladder cancer cells, 72 h, average of several independent assays; read-out: IC50 (nM) ± SD, proliferation inhibition
Protocol: as §1, §2, §3

[3] = system: VMCUB1 bladder carcinoma cell line; experiment: Cell proliferation assay (methylene blue, 96-well), VMCUB1; assay type: cell-based, human; conditions: for IC50: Homo sapiens, VM-CUB-1, VMCUB1 bladder cancer cells, 72 h, read-out: IC50 (nM) ± SD, proliferation inhibition; for sensitivity of growth to inhibition (in words): VMCUB1 cells
Protocol: VMCUB-1: human urinary bladder transitional cell carcinoma established from a primary bladder carcinoma. Stage and histological grade are not recorded (Masters et al. 1986, loc. cit.). Cells are obtained from DSMZ ACC #400.
as §1
(§4) In detail, FGF-R1, FGF-R2 and FGF-R4 expression is determined by Western Blot using specific antibodies, respectively: sc-121 (Santa Cruz), sc-122 (Santa Cruz) and sc-124 (Santa Cruz). To determine the expression of FGF-R3, first FGF-R3 is immunoprecipitated with the antibody F-0425 from Sigma, and the immunocomplexes are subjected to Western Blot using the antibody F-0425 from Sigma. Cell proliferation is measured in 96-well plates. The cells are seeded in a volume of 100 μl per well in the growth media given above. For RT 112, RT4 and SUM52 8500 cells/well are seeded, for VMCUB1, J82, HT1197 and KMS11, 5000 cells/well are seeded, for OPM2 30000 cells/well are seeded. Medium containing FGF-R inhibitor 1, FGFR inhibitor 2 or (as control) DMSO is added 24 h after seeding, respectively. After 72 h, cells are fixed by addition of 25 μl/well glutaraldehyde (20%) for 10 min at room temperature (RT). Cells are then washed twice with 200 μl/well H2O and 100 μl Methylene Blue (0.05%) are added. After incubation for 10 min at RT, cells are washed 3× with 200 μl/well H2O. Upon addition of 200 μl/well HCl (3%) and incubation for 30 min at RT on a plate shaker, the Optical Density (OD) at 650 nm is measured. The concentration of inhibitor 1 providing 50% of proliferation inhibition is calculated using Excel module.
as §3

[4] = system: J82 bladder carcinoma cell line; experiment: Cell proliferation assay (methylene blue, 96-well), J82; assay type: cell-based, human; conditions: for IC50: Homo sapiens, J82 bladder cancer cells, 72 h, read-out: IC50 (nM) ± SD, proliferation inhibition; for sensitivity of growth to inhibition (in words): J82 cells
Protocol: J82: human urinary bladder transitional cell carcinoma established from a primary bladder carcinoma, histological grade G3, stage T3 (Masters et al. 1986, loc. cit.). Cells are obtained from ATCC # HTB-1.
as §1, §4, §3

[5] = system: HT1197 bladder carcinoma cell line; experiment: Cell proliferation assay (methylene blue, 96-well), HT1197; assay type: cell-based, human; conditions: for sensitivity of growth to inhibition (in words): HT1197 cells; for IC50: Homo sapiens, HT1197 bladder cancer cells, 72 h, read-out: IC50 (nM) ± SD, proliferation inhibition
Protocol: HT1197: human urinary bladder transitional cell carcinoma established from a recurrent bladder carcinoma, histological grade G4, stage T2 (Masters et al. 1986, loc. cit.). Cells are obtained from ATCC # CRL-1473.
as §1, §4, §3

[6] = system: OPM2 multiple myeloma cell line; experiment: Cell proliferation assay (methylene blue, 96-well), OPM2; assay type: cell-based; conditions: Homo sapiens, OPM-2; OPM2 multiple myeloma cells, 72 h; read-out: IC50 (nM) ± SD, proliferation inhibition
Description: (§5) OPM2 and KMS11: human multiple myeloma (MM) cell lines derived from end-stage disease patients. OPM2 cells are obtained from DSMZ ACC #50.
(§6) KMS11 cells are provide by Dr. T Otsuki, Kawasaki Medical School, Okayama, Japan. Both cell lines are reported to carry the t(4,14) translocation and express a mutated, constitutively activated form of FGF-R3. In particular, OPM2 cells harbour a mutation in the ATP binding pocket in the kinase domain, which results in a change of lysine in position 650 into glutamic acid. KMS11 cells harbor a mutation in the extracellular domain of the receptor changing tyrosine in position 373 into cysteine. Both cell lines are grown in RPMI 1640 (Gibco #21875) supplemented with 1% L-glutamine (Amimed #5-10K00-H) and 20% FCS (Gibco #10082-147).
as §2, with “module. […]” for “module.”

[7] = system: KMS11 multiple myeloma cell line; experiment: Cell proliferation assay (methylene blue, 96-well), KMS11; assay type: cell-based; conditions: Homo sapiens, KMS-11; KMS11 multiple myeloma cells, 72 h; read-out: IC50 (nM) ± SD, proliferation inhibition
Description: as §5, §6
as §2, with “module. […]” for “module.”

[8] = system: FRS-2 tyrosine phosphorylation in RT4 cells; experiment: FRS-2 tyrosine phosphorylation after FGF-R inhibitor treatment (IP/Western Blot), RT4 cells; assay type: cell-based, human; conditions: RT4 cells treated with inhibitor, FIG. 2A
Protocol: FIG. 2: Comparative analysis of FRS-2 phosphorylation following treatment with the FGF-R inhibitor PD173074 (inhibitor 1, see Methods in Example 1) in the RT4 cells, in the case of RT112 with TKI258/CHIR258, 4-Amino-5-fluoro-3[6-(4-methyl-1-piperazinyl)-1H-benzimidazol-2-yl]-2(1H)-quinolinone (inhibitor 2, see Methods in Example 1). The cell lines indicated are treated as shown. FRS-2 tyrosine phosphorylation is determined by immunoprecipitation with a specific FRS-2 antibody followed by […] Western Blotting, or by western blot using an antibody that detects phosphorylated Tyr196 on FRS2. […] Inhib. 1=inhibitor 1, Inhib. 2=inhibitor 2, DMSO=dimethyl sulfoxide.
(§7) Cells are solubilized in 1% Triton extraction buffer containing protease and phosphatase inhibitors (“lysis buffer” 50 mM Tris pH 7.5, 150 mM NaCl, 1 mM EGTA, 5 mM EDTA, 1% Triton, 2 mM NaVanadate, 1 mM PMSF and protease inhibition cocktail from Hoffmann-LaRoche, Basel, Switzerland, #1187358001). Lysates are clarified by centrifugation at 12000×g for 15 min and protein concentration is determined using the DC Protein Assay Reagents (Bio Rad, Bio-Rad Laboratories, Inc., Hercules, Calif., USA, #500-0116) (an assay based on the method of Bradford, M., see Anal. Biochem., 72, 248 (1976), employing Coomassie Blue®, ICI) and a Bovine Serum Albumin (BSA) standard. […]

[9] = system: SUM52 breast carcinoma cell line; experiment: Cell proliferation assay (methylene blue, 96-well), SUM52; assay type: cell-based; conditions: Homo sapiens; SUM52 breast cancer cells, 72 h; read-out: IC50 (nM) ± SD, proliferation inhibition
Protocol: as §4, with “After 72 h, cells are fixed by addition of 25 μl/well glutaraldehyde (20%) for 10 min at room temperature (RT). Cells are then washed twice with 200 μl/well H2O and 100 μl Methylene Blue (0.05%) are added. After incubation for 10 min at RT, cells are washed 3× with 200 μl/well H2O.” left out
as §3

[10] = system: FRS-2 tyrosine phosphorylation in RT112 cells; experiment: FRS-2 tyrosine phosphorylation after FGF-R inhibitor treatment (IP/Western Blot), RT112 cells; assay type: cell-based, human; conditions: RT112 cells treated with inhibitor, FIG. 2B
Protocol: The cell lines indicated are treated as shown. FRS-2 tyrosine phosphorylation is determined by immunoprecipitation with a specific FRS-2 antibody followed by anti-FRS-2 Western Blotting, or by western blot using an antibody that detects phosphorylated Tyr196 on FRS2.
Immunocomplexes are collected with protein A- or protein G-sepharose (Sigma, # P-9424; Sigma, # P-3296) and washed 3 × with lysis buffer. Bound proteins are released by boiling in 2 × sample buffer (20% SDS, 20% glycerol, 160 mM Tris pH 6.8, 4% β-mercaptoethanol, 0.04% bromo-phenol blue). […]

[11] = system: FRS-2 tyrosine phosphorylation in RT112 cells; experiment: FRS-2 tyrosine phosphorylation upon growth factor stimulation (IP/Western Blot), RT112 cells; assay type: cell-based, human; conditions: aFGF/heparin 50 ng/ml//5 μg/ml, EGF 10 ng/ml, insulin 5 μg/ml, FIG. 3
Protocol: (§8) FIG. 3: Comparative analysis of FRS-2 tyrosine phosphorylation upon growth factor stimulation: The bladder cancer cell lines RT112 and […] are stimulated with aFGF/heparin (50 ng/ml//5 μg/ml), EGF (10 ng/ml) (from R & D Systems, Inc., Minneapolis, Minn., USA; #236-EG-200) or insulin (5 μg/ml) (Sigma, Sigma-Aldrich, Inc., St. Louis, Mo., USA; #1882). Cells are lysed and total protein lysates are recovered. FRS-2 tyrosine phosphorylation is determined by immunoprecipitation followed by anti-pTyr antibody Western Blotting, using antibodies mentioned in Table 1 of Example 1. […] Equal amount of MAPK protein is monitored by Western Blotting with α-MAPK (MAPK in Table 1 in Example 1). […]
as §7

[12] = system: MAPK activation in RT112 cells; experiment: MAPK activation upon growth factor stimulation (anti-phosphoMAPK Western Blot), RT112 cells; assay type: cell-based, human; conditions: EGF 10 ng/ml, insulin 5 μg/ml, FIG. 3
Protocol: as §8, §7

Row | IC50 [1] | IC50 [2] | IC50 [3] | IC50 [4] | IC50 [5] | IC50 [6] | IC50 [7] | IC50 [9] | Compound | sensitivity of growth to inhibition (in words) [3] | sensitivity of growth to inhibition (in words) [4] | sensitivity of growth to inhibition (in words) [5] | effect on FRS-2 tyrosine phosphorylation [8] | effect on FRS-2 tyrosine phosphorylation [10] | induction of FRS-2 tyrosine phosphorylation [11] | MAPK activation (pMAPK) [12]
1 | 14 ± 3 nM | 28 ± 8 nM | > 3000 nM | > 3000 nM | > 3000 nM | 148 ± 31 nM | 50 ± 14 nM | – | CCN(CC)CCCCNc1ncc2cc(-c3cc(OC)cc(OC)c3)c(NC(=O)NC(C)(C)C)nc2n1 [Inhibitor 1, PD173074] | resistant to inhibition | resistant to inhibition | resistant to inhibition | abolish FRS-2 tyrosine phosphorylation; also recorded: completely inhibits FRS-2 phosphorylation | – | – | –
2 | 60 ± 20 nM | 134 ± 58 nM | > 2000 nM | > 3000 nM | > 3000 nM | – | 93 nM | 190 ± 58 nM | CN1CCN(c2ccc3nc(-c4c(N)c5c(F)cccc5[nH]c4=O)[nH]c3c2)CC1 [Inhibitor 2, 4-Amino-5-fluoro-3[6-(4-methyl-1-piperazinyl)-1H-benzimidazol-2-yl]-2(1H)-quinolinone] | resistant to inhibition | resistant to inhibition | resistant to inhibition | – | abolish FRS-2 tyrosine phosphorylation | – | –
3 | – | – | – | – | – | – | – | – | insulin | – | – | – | – | – | fail to induce phospho-FRS-2 | activate MAPK
